Patent US7872014B2, “Anaplastic lymphoma kinase modulators and methods of use” (Exelixis, Inc., priority 2003, dated 2011)

What follows are compounds tested against T1, ALK (baculovirus expressed human ALK kinase domain F1098-K1410) (Homo sapiens, UniProt Q9UM73) (assay: Luciferase-Coupled Chemiluminescent Kinase assay (LCCA), ALK biochemical activity). Conditions: inhibition of ALK; mean values; 1 μM ATP, 4 μM poly-AEKY, 12 nM ALK, 2 hours ambient temperature.
T1 construct: baculovirus expressed human ALK kinase domain F1098-K1410; made in house
T1 sequence (Q9UM73 1098-1410): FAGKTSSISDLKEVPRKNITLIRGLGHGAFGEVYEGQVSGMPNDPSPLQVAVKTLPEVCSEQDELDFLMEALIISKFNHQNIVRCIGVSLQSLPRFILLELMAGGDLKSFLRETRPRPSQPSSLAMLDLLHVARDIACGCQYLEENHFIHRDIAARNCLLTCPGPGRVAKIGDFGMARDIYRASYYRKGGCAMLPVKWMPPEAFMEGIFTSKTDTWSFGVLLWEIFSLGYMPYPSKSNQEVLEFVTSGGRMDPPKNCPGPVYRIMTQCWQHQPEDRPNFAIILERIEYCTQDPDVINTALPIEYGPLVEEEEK
Summary of the method: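 Luciferase-coupled readout of ATP remaining after reaction of 12 nM ALK kinase domain with 1 μM ATP and 4 μM poly-AEKY, Tris-HCl pH 7.5 buffer with MgCl2 and MnCl2. Incubated 2 h at ambient temperature; inhibition derived from ATP consumption across serial compound dilutions.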

Question: For COc1c(OCC2CCN(C)CC2)cc(F)c2c(-c3ccc(O)c(Br)c3)nc3[nH]nc(C)c3c12 [Example 183, 2-bromo-4-(6-fluoro-1-methyl-9-(methyloxy)-8-{[(1-methylpiperidin-4-yl)methyl]oxy}-3H-pyrazolo[3,4-c]isoquinolin-5-yl)phenol], which IC50 is on record?
Answer: ≤ 99 nM

Question: COc1c(OCC2CCN(C)CC2)cc(F)c2c(-c3cc(Cl)c(O)cc3F)nc3[nH]nc(C)c3c12 [Example 184, 2-chloro-5-fluoro-4-(6-fluoro-1-methyl-9-(methyloxy)-8-{[(1-methylpiperidin-4-yl)methyl]oxy}-3H-pyrazolo[3,4-c]isoquinolin-5-yl)phenol] was tested. Which IC50 did it give?
Answer: ≤ 99 nM

Question: How did the IC50 turn out when COc1c(OCC2CCN(C)CC2)cc(F)c2c(-c3ccc(O)c(C)c3)nc3[nH]nc(C)c3c12 [Example 185, 4-(6-fluoro-1-methyl-9-(methyloxy)-8-{[(1-methylpiperidin-4-yl)methyl]oxy}-3H-pyrazolo[3,4-c]isoquinolin-5-yl)-2-methylphenol] was run?
Answer: ≤ 99 nM

Question: Which IC50 does the source give for Cc1n[nH]c2nc(-c3ccc(O)c(Cl)c3)c3c(F)cc(OCCN4CCCCC4)c(F)c3c12 [Example 186, 2-chloro-4-{6,9-difluoro-1-methyl-8-[(2-piperidin-1-ylethyl)oxy]-3H-pyrazolo[3,4-c]isoquinolin-5-yl}phenol] here?
Answer: ≤ 99 nM

Question: How did the IC50 turn out when CCN1CCN(CCOc2cc(F)c3c(-c4ccc(O)c(Cl)c4)nc4[nH]nc(C)c4c3c2F)CC1 [Example 187, 2-chloro-4-(8-{[2-(4-ethylpiperazin-1-yl)ethyl]oxy}-6,9-difluoro-1-methyl-3H-pyrazolo[3,4-c]isoquinolin-5-yl)phenol] was run?
Answer: ≤ 99 nM

Question: How did the IC50 turn out when CCN(CC)CCOc1cc(F)c2c(-c3ccc(O)c(Cl)c3)nc3[nH]nc(C)c3c2c1F [Example 188, 2-chloro-4-(8-{[2-(diethylamino)ethyl]oxy}-6,9-difluoro-1-methyl-3H-pyrazolo[3,4-c]isoquinolin-5-yl)phenol] was run?
Answer: ≤ 99 nM

Question: How did the IC50 turn out when Cc1n[nH]c2nc(-c3ccc4[nH]ccc4c3)c3c(F)cc(O)c(F)c3c12 [Example 191, 6,9-difluoro-5-(1H-indol-5-yl)-1-methyl-3H-pyrazolo[3,4-c]isoquinolin-8-ol] was run?
Answer: 100 to 999 nM

Question: With Cc1n[nH]c2nc(-c3ccc(N)cc3)c3c(F)cc(O)c(F)c3c12 [Example 193, 5-(4-aminophenyl)-6,9-difluoro-1-methyl-3H-pyrazolo[3,4-c]isoquinolin-8-ol] as the compound, how does the IC50 read?
Answer: 1000 to 2000 nM

Question: For COc1c(OCCN2CCN(C)CC2)cc2c(c(-c3ccc(O)c(Cl)c3)nc3[nH]nc(C)c32)c1F [Example 194, 2-chloro-4-(6-fluoro-1-methyl-7-(methyloxy)-8-{[2-(4-methylpiperazin-1-yl)ethyl]oxy}-3H-pyrazolo[3,4-c]isoquinolin-5-yl)phenol], which IC50 is on record?
Answer: ≤ 99 nM

Question: For Cc1n[nH]c2nc(-c3cnc(N)s3)c3c(F)cc(O)c(F)c3c12 [Example 195, 5-(2-amino-1,3-thiazol-5-yl)-6,9-difluoro-1-methyl-3H-pyrazolo[3,4-c]isoquinolin-8-ol], which IC50 is on record?
Answer: ≤ 99 nM

Question: CCN1CCN(CCOc2cc(F)c3c(-c4ccc(O)c(Cl)c4)nc4[nH]nc(C)c4c3c2OC)CC1 [Example 196, 2-chloro-4-[8-{[2-(4-ethylpiperazin-1-yl)ethyl]oxy}-6-fluoro-1-methyl-9-(methyloxy)-3H-pyrazolo[3,4-c]isoquinolin-5-yl]phenol] was tested. Which IC50 did it give?
Answer: ≤ 99 nM

Question: With COc1c(OCCN2CCN(C)CC2)cc(F)c2c(-c3ccc(O)c(Cl)c3)nc3[nH]nc(C)c3c12 [Example 197, 2-chloro-4-(6-fluoro-1-methyl-9-(methyloxy)-8-{[2-(4-methylpiperazin-1-yl)ethyl]oxy}-3H-pyrazolo[3,4-c]isoquinolin-5-yl)phenol] as the compound, how does the IC50 read?
Answer: ≤ 99 nM

Question: Which IC50 does the source give for Cc1n[nH]c2nc(-c3ccc(N)nc3)c3c(F)cc(O)c(F)c3c12 [Example 198, 5-(6-aminopyridin-3-yl)-6,9-difluoro-1-methyl-3H-pyrazolo[3,4-c]isoquinolin-8-ol] here?
Answer: > 2000 nM

Question: Cc1n[nH]c2nc(-c3ccc(N)s3)c3c(F)cc(O)c(F)c3c12 [Example 199, 5-(5-amino-2-thienyl)-6,9-difluoro-1-methyl-3H-pyrazolo[3,4-c]isoquinolin-8-ol] was tested. Which IC50 did it give?
Answer: 100 to 999 nM

Question: For CCN1CCN(CCCOc2cc(F)c3c(-c4ccc(O)c(Cl)c4)nc4[nH]nc(C)c4c3c2OC)CC1 [Example 200, 2-chloro-4-[8-{[3-(4-ethylpiperazin-1-yl)propyl]oxy}-6-fluoro-1-methyl-9-(methyloxy)-3H-pyrazolo[3,4-c]isoquinolin-5-yl]phenol], which IC50 is on record?
Answer: ≤ 99 nM

Question: COc1c(OCCCN2CCN(C)CC2)cc(F)c2c(-c3ccc(O)c(Cl)c3)nc3[nH]nc(C)c3c12 [Example 201, 2-chloro-4-(6-fluoro-1-methyl-9-(methyloxy)-8-{[3-(4-methylpiperazin-1-yl)propyl]oxy}-3H-pyrazolo[3,4-c]isoquinolin-5-yl)phenol] was tested. Which IC50 did it give?
Answer: ≤ 99 nM

Question: How did the IC50 turn out when Cc1n[nH]c2nc(-c3ccc4cc[nH]c4c3)c3c(F)cc(O)c(F)c3c12 [Example 202, 6,9-difluoro-5-(1H-indol-6-yl)-1-methyl-3H-pyrazolo[3,4-c]isoquinolin-8-ol] was run?
Answer: > 2000 nM

Question: Which IC50 does the source give for CC(=O)Nc1ncc(-c2nc3[nH]nc(C)c3c3c(F)c(O)cc(F)c23)s1 [Example 203, N-[5-(6,9-difluoro-8-hydroxy-1-methyl-3H-pyrazolo[3,4-c]isoquinolin-5-yl)-1,3-thiazol-2-yl]acetamide] here?
Answer: 1000 to 2000 nM

Question: For COc1c(OCCN2CCOCC2)cc(F)c2c(-c3ccc(O)c(Cl)c3)nc3[nH]nc(C)c3c12 [Example 206, 2-chloro-4-{6-fluoro-1-methyl-9-(methyloxy)-8-[(2-morpholin-4-ylethyl)oxy]-3H-pyrazolo[3,4-c]isoquinolin-5-yl}phenol], which IC50 is on record?
Answer: ≤ 99 nM

Question: Which IC50 does the source give for CCCCN(CC)CCOc1cc(F)c2c(-c3ccc(O)c(Cl)c3)nc3[nH]nc(C)c3c2c1OC [Example 207, 4-[8-({2-[butyl(ethyl)amino]ethyl}oxy)-6-fluoro-1-methyl-9-(methyloxy)-3H-pyrazolo[3,4-c]isoquinolin-5-yl]-2-chlorophenol] here?
Answer: ≤ 99 nM

Question: For COc1c(OC[C@H](N)C(C)C)cc(F)c2c(-c3ccc(O)c(Cl)c3)nc3[nH]nc(C)c3c12 [Example 208, 4-[8-{[(2R)-2-amino-3-methylbutyl]oxy}-6-fluoro-1-methyl-9-(methyloxy)-3H-pyrazolo[3,4-c]isoquinolin-5-yl]-2-chlorophenol], which IC50 is on record?
Answer: ≤ 99 nM

Question: COc1c(OCCC2CCN(C)CC2)cc(F)c2c(-c3ccc(O)c(Cl)c3)nc3[nH]nc(C)c3c12 [Example 209, 2-chloro-4-(6-fluoro-1-methyl-9-(methyloxy)-8-{[2-(1-methylpiperidin-4-yl)ethyl]oxy}-3H-pyrazolo[3,4-c]isoquinolin-5-yl)phenol] was tested. Which IC50 did it give?
Answer: ≤ 99 nM

Question: CCN1CCC(COc2cc(F)c3c(-c4ccc(O)c(Cl)c4)nc4[nH]nc(C)c4c3c2OC)CC1 [Example 210, 2-chloro-4-[8-{[(1-ethylpiperidin-4-yl)methyl]oxy}-6-fluoro-1-methyl-9-(methyloxy)-3H-pyrazolo[3,4-c]isoquinolin-5-yl]phenol] was tested. Which IC50 did it give?
Answer: ≤ 99 nM

Question: Which IC50 does the source give for Cc1n[nH]c2nc(-c3nnc(N)s3)c3c(F)cc(O)c(F)c3c12 [Example 212, 5-(5-amino-1,3,4-thiadiazol-2-yl)-6,9-difluoro-1-methyl-3H-pyrazolo[3,4-c]isoquinolin-8-ol] here?
Answer: 100 to 999 nM

Question: Which IC50 does the source give for COc1c(OC[C@H](N)C(C)(C)C)cc(F)c2c(-c3ccc(O)c(Cl)c3)nc3[nH]nc(C)c3c12 [Example 213, 4-[8-{[(2R)-2-amino-3,3-dimethylbutyl]oxy}-6-fluoro-1-methyl-9-(methyloxy)-3H-pyrazolo[3,4-c]isoquinolin-5-yl]-2-chlorophenol] here?
Answer: ≤ 99 nM

Question: Which IC50 does the source give for COc1c(OCCN2CCN(CC(C)C)CC2)cc(F)c2c(-c3ccc(O)c(Cl)c3)nc3[nH]nc(C)c3c12 [Example 214, 2-chloro-4-[6-fluoro-1-methyl-9-(methyloxy)-8-({2-[4-(2-methylpropyl)piperazin-1-yl]ethyl}oxy)-3H-pyrazolo[3,4-c]isoquinolin-5-yl]phenol] here?
Answer: ≤ 99 nM

Question: How did the IC50 turn out when CCN1CC2CC1CN2CCOc1cc(F)c2c(-c3ccc(O)c(Cl)c3)nc3[nH]nc(C)c3c2c1OC (centres unmarked) [Example 215, 2-chloro-4-[8-{[2-(5-ethyl-2,5-diazabicyclo[2.2.1]hept-2-yl)ethyl]oxy}-6-fluoro-1-methyl-9-(methyloxy)-3H-pyrazolo[3,4-c]isoquinolin-5-yl]phenol] was run?
Answer: ≤ 99 nM

Question: COc1c(OCCN2CCN(C(C)C)CC2)cc(F)c2c(-c3ccc(O)c(Cl)c3)nc3[nH]nc(C)c3c12 [Example 216, 2-chloro-4-[6-fluoro-1-methyl-8-({2-[4-(1-methylethyl)piperazin-1-yl]ethyl}oxy)-9-(methyloxy)-3H-pyrazolo[3,4-c]isoquinolin-5-yl]phenol] was tested. Which IC50 did it give?
Answer: ≤ 99 nM

Question: How did the IC50 turn out when COc1c(OCCN2C3CCC2CC(N)C3)cc(F)c2c(-c3ccc(O)c(Cl)c3)nc3[nH]nc(C)c3c12 (centres unmarked) [Example 217, 4-[8-{[2-(3-amino-8-azabicyclo[3.2.1]oct-8-yl)ethyl]oxy}-6-fluoro-1-methyl-9-(methyloxy)-3H-pyrazolo[3,4-c]isoquinolin-5-yl]-2-chlorophenol] was run?
Answer: ≤ 99 nM

Question: CCN1CCC(CCOc2cc(F)c3c(-c4ccc(O)c(Cl)c4)nc4[nH]nc(C)c4c3c2OC)CC1 [Example 218, 2-chloro-4-[8-{[2-(1-ethylpiperidin-4-yl)ethyl]oxy}-6-fluoro-1-methyl-9-(methyloxy)-3H-pyrazolo[3,4-c]isoquinolin-5-yl]phenol] was tested. Which IC50 did it give?
Answer: ≤ 99 nM

Question: Which IC50 does the source give for CCN(CC)CCOc1cc(F)c2c(-c3ccc(O)c(Cl)c3)nc3[nH]nc(C)c3c2c1OC [Example 219, 2-chloro-4-[8-{[2-(diethylamino)ethyl]oxy}-6-fluoro-1-methyl-9-(methyloxy)-3H-pyrazolo[3,4-c]isoquinolin-5-yl]phenol] here?
Answer: ≤ 99 nM

Question: How did the IC50 turn out when COc1c(OCCN2CCCC2)cc(F)c2c(-c3ccc(Cl)c(O)c3)nc3[nH]nc(C)c3c12 [Example 220, 2-chloro-5-{6-fluoro-1-methyl-9-(methyloxy)-8-[(2-pyrrolidin-1-ylethyl)oxy]-3H-pyrazolo[3,4-c]isoquinolin-5-yl}phenol] was run?
Answer: ≤ 99 nM
